Here are results for seven compounds from ChEMBL document CHEMBL1131962, “A new class of selective and potent inhibitors of neuronal nitric oxide synthase” (Bioorg Med Chem Lett, 1999).

A word on the IC50: it is the concentration that inhibits the measured activity by half. A high value points to weaker potency in that assay. By Ki is commonly meant a measure of affinity in units of concentration, obtained from inhibition or displacement. A low value points to tighter binding. Broadly, the Cmax is the peak of the concentration-time curve. The term half-life denotes how long it takes for the measured level to halve. A higher half-life goes with slow decline.

The target in one data set is T1, Nitric oxide synthase 3 (Homo sapiens, UniProt P29474).
T1 sequence (P29474 whole entry): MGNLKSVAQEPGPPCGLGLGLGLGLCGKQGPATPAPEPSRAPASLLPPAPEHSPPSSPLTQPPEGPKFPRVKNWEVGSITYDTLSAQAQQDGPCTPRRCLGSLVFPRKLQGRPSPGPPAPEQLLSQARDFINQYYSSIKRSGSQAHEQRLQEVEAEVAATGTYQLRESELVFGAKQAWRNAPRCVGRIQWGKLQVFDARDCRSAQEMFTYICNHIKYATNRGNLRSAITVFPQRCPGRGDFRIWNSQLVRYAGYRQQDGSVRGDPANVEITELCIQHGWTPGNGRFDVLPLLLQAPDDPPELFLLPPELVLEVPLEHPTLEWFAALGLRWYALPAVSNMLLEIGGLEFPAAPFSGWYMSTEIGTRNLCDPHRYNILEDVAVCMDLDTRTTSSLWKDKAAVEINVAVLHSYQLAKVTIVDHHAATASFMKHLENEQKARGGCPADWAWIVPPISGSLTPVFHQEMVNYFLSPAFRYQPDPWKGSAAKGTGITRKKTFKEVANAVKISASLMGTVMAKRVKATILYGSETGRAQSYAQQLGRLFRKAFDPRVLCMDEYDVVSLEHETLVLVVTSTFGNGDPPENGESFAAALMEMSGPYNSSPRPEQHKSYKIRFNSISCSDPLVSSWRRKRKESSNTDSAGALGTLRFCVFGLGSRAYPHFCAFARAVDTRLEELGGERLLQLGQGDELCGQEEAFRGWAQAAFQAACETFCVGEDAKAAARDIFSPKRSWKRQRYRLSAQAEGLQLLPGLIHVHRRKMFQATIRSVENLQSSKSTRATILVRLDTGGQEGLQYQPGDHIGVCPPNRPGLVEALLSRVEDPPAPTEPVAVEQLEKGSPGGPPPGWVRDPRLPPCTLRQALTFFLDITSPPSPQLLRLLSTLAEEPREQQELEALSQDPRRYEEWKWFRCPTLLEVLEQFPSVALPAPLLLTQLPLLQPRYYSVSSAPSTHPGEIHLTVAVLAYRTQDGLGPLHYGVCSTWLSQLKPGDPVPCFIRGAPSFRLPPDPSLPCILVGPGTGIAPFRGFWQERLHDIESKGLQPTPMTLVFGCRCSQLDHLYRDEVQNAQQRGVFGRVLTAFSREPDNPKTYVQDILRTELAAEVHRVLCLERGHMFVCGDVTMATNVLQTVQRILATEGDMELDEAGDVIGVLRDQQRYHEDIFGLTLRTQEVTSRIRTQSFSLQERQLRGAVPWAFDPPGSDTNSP
The data set can be described thus: Inhibitory activity against human endothelial nitric oxide synthase (eNOS).

The target of data set [1] is Nitric oxide synthase 1 (Homo sapiens, UniProt P29475). As to the kind of experiment: Inhibitory activity against human neuronal nitric oxide synthase (nNOS).
Chain of Nitric oxide synthase 1 (Homo sapiens, UniProt P29475) (P29475 whole entry): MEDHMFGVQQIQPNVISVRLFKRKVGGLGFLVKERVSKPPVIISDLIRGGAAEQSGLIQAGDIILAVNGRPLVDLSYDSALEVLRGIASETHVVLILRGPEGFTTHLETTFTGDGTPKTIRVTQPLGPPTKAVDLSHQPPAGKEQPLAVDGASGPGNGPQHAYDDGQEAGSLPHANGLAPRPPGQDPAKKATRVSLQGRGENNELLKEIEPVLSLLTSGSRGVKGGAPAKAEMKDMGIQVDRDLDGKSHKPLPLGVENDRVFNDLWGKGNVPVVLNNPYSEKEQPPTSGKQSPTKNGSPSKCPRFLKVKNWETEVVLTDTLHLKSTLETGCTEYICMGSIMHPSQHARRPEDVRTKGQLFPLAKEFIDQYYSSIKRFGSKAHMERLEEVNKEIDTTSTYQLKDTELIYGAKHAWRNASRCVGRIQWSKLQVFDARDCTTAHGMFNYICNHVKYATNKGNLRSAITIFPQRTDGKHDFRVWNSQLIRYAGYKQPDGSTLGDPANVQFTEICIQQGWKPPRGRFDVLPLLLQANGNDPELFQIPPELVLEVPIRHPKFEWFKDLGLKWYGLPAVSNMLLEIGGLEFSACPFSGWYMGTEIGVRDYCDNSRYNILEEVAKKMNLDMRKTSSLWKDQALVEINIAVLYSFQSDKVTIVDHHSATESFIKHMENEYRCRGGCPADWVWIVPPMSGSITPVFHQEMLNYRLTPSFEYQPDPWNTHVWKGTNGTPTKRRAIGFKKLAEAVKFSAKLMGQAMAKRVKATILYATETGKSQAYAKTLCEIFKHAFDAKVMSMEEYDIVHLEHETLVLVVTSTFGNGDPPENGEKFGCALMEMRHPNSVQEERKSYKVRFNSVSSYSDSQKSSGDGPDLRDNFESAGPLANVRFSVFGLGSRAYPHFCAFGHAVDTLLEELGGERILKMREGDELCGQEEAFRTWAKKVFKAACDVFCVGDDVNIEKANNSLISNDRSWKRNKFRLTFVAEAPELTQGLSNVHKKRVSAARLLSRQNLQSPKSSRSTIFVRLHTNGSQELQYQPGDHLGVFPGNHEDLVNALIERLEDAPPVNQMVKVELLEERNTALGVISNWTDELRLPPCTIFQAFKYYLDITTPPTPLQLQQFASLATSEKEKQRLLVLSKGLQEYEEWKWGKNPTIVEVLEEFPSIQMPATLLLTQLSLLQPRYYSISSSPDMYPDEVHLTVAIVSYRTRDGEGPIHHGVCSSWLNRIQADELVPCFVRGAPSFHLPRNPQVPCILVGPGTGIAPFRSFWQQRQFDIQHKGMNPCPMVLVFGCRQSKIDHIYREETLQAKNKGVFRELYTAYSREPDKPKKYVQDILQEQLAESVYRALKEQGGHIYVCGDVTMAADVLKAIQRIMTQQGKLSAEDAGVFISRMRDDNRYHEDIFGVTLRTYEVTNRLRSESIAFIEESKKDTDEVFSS
The target of data set [2] is Nitric oxide synthase 1 (Rattus norvegicus, UniProt P29476). The data set can be described thus: Inhibitory activity against rat neuronal nitric oxide synthase (nNOS).
Chain of Nitric oxide synthase 1 (Rattus norvegicus, UniProt P29476) (P29476 whole entry): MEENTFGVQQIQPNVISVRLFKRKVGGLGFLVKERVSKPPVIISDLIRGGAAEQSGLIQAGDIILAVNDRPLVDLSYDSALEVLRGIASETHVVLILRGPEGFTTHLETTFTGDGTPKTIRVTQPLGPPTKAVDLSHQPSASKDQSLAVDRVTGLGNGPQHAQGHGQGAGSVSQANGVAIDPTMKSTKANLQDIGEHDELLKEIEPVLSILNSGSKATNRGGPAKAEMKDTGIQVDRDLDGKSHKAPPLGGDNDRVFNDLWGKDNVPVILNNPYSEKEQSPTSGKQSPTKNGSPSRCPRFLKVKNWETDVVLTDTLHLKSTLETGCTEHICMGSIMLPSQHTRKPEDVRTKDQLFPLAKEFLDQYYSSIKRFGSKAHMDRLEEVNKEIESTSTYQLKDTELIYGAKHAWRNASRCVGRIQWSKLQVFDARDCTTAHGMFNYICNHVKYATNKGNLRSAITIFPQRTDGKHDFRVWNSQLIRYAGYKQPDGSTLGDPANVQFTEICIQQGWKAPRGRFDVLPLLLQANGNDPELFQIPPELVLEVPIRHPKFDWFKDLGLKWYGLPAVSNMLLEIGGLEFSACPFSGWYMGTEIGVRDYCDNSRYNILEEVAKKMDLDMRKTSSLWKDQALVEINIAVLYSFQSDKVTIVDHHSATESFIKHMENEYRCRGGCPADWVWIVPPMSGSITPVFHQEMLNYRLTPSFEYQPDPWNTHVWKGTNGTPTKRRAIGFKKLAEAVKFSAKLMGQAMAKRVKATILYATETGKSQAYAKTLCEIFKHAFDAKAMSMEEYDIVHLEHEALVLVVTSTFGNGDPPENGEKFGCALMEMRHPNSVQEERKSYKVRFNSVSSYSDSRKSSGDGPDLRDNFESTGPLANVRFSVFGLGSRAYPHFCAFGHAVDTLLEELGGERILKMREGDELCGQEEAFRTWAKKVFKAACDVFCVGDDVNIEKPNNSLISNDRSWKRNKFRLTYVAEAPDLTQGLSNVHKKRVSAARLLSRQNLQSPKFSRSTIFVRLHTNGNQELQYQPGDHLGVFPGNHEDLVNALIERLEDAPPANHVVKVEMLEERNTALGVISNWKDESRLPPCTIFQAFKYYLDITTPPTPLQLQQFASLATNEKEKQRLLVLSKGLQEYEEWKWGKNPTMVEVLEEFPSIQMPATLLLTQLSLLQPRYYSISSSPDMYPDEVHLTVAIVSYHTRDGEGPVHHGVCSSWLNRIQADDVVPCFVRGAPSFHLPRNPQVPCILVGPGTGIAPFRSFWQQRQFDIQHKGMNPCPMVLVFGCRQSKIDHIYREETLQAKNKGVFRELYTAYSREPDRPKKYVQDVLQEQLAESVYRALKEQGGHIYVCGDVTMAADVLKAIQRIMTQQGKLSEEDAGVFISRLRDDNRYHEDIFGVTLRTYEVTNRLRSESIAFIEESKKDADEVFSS
The target of data set [3] is T2, 5-hydroxytryptamine receptor 1A (Homo sapiens, UniProt P08908).
T2 sequence (P08908 whole entry): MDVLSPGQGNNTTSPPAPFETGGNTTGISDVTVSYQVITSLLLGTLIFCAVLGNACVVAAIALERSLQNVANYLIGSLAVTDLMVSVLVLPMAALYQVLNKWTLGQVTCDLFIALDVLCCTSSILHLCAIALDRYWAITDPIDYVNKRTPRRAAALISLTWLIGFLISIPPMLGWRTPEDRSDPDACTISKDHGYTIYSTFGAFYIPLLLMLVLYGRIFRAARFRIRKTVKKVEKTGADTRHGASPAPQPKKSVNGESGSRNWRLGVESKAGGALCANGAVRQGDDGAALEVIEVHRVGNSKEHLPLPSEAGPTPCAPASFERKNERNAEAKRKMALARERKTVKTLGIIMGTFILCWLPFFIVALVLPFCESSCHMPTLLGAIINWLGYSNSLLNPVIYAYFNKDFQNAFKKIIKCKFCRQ
As to the kind of experiment: Binding affinity of compound to human 5-hydroxytryptamine 1A receptor.

Data set [4] has as its target 5-hydroxytryptamine receptor 2A (Homo sapiens, UniProt P28223). The data set can be described thus: Binding affinity of compound to human 5-hydroxytryptamine 2A receptor.
For data set [5], the target named is T3, D(2) dopamine receptor (Homo sapiens, UniProt P14416). The data set can be described thus: Binding ability of compound to human Dopamine receptor D2.
T3 sequence (P14416 whole entry): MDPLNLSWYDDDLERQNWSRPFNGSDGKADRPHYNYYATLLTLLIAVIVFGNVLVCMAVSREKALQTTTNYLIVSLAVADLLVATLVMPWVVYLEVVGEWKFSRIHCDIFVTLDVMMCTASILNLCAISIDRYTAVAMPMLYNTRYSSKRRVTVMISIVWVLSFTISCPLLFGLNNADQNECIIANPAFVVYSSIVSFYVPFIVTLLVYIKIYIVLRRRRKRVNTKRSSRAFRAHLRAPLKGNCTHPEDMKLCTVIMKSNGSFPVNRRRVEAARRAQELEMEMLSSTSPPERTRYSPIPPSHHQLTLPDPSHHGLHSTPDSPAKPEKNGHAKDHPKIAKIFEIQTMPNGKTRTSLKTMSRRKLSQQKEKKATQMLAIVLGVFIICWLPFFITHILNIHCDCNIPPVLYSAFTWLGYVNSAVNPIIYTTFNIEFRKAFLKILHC
Data set [6] is described as follows: Maximum concentration in whole brain at 30 min following 24 mg/kg subcutaneous dose in rats. Format: ADME, organism-based. More on the design: dose 24 mg/kg, route subcutaneous. The note with it: rat, sc.
Data set [7] can be described thus: Maximum concentration in CSF at 30 min following 24 mg/kg subcutaneous dose in rats. Format: ADME, organism-based, Cerebrospinal fluid. More on the design: dose 24 mg/kg, route subcutaneous. The note with it: rat, sc.
Data set [8] in a line: Maximum concentration in plasma at 30 min following 24 mg/kg subcutaneous dose in rats. Type of data set: ADME, organism-based. More on the design: dose 24 mg/kg, route subcutaneous. The conditions noted are these: rat, sc.
Data set [9] is described as follows: Half life in rats. Format: ADME, organism-based. The note with it: rat, in vivo.
In data set [10] the target is T3, D(2) dopamine receptor. The data set can be described thus: Binding affinity of compound to Dopamine receptor D2.
Data set [11] deals with T4, Muscarinic acetylcholine receptor M2 (Homo sapiens, UniProt P08172).
T4 sequence (P08172 whole entry): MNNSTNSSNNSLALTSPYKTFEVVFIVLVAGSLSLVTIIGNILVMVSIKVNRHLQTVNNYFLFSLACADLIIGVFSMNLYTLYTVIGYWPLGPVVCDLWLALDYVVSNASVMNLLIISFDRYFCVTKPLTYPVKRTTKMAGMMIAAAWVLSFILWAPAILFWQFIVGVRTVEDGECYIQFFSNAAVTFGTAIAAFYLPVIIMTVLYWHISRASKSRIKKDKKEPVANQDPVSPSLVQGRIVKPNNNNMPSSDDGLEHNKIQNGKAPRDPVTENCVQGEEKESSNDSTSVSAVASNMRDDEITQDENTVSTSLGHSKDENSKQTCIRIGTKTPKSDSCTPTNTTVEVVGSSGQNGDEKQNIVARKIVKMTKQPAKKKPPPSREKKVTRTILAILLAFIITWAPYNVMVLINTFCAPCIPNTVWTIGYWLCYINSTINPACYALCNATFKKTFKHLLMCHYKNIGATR
The data set can be described thus: Binding affinity of compound to m2 muscarinic receptor.

Data set [12] concerns the target T5, Muscarinic acetylcholine receptor M4 (Homo sapiens, UniProt P08173).
T5 sequence (P08173 whole entry): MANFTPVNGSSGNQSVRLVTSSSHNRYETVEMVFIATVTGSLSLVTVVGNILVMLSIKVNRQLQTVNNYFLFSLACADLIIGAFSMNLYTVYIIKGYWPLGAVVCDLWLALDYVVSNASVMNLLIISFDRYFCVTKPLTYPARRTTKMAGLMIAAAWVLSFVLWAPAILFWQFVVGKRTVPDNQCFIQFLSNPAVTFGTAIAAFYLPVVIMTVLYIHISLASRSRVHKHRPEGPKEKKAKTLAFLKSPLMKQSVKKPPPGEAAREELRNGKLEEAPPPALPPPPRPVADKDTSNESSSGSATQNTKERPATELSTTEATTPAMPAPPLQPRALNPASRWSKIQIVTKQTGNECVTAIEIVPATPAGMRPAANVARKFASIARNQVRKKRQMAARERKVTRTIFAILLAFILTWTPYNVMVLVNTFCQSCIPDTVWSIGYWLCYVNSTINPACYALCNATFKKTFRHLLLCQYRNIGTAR
The data set can be described thus: Binding ability of compound to m4 muscarinic receptor.

Where only a bound is given, the exact number is not on record here.

Chain of 5-hydroxytryptamine receptor 2A (P28223 whole entry): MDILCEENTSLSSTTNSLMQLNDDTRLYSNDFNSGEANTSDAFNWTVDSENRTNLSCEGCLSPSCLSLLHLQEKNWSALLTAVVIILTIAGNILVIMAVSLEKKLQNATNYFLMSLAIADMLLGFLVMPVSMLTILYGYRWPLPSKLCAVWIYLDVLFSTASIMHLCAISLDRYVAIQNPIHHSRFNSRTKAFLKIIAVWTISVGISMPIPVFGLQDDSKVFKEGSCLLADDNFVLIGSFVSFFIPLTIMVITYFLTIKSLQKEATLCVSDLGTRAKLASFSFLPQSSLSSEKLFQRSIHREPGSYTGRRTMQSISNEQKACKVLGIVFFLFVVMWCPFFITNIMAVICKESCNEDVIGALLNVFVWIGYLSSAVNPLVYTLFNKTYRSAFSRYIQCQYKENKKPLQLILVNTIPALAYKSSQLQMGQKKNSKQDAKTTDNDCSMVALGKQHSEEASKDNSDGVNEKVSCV

Regarding `Nc1cccc(-c2ccc(CCN3CCN(CCc4ccccc4)CC3)cc2)n1`, the 50% inhibitory concentration (IC50) against Nitric oxide synthase 3 was 448 nM; against Nitric oxide synthase 1 [1] it was 264 nM; against Nitric oxide synthase 1 [2] it was 247 nM.
Consider `Nc1cccc(-c2ccc(CCN3CCN(C(=O)Cc4ccccc4)CC3)cc2)n1`, for which the IC50 at Nitric oxide synthase 3 was determined as 685 nM; on Nitric oxide synthase 1 [1] it was 137 nM; against Nitric oxide synthase 1 [2], 108 nM.
Compound `O=[N+]([O-])c1cccc2cn[nH]c12` [7-NITROINDAZOLE] came in with an IC50 on Nitric oxide synthase 1 [1] of 2870 nM.
As for `Nc1cccc(-c2ccc(CCN3CCN(c4cccc5cccnc45)CC3)cc2)n1`, the Ki in data set [3] stood at 3 nM; in data set [4], 14 nM; at D(2) dopamine receptor [5], 11 nM. Moreover, the IC50 was determined as 825 nM against Nitric oxide synthase 3, 212 nM at Nitric oxide synthase 1 [1] and 130 nM on Nitric oxide synthase 1 [2].
Regarding `Nc1cccc(-c2ccc(CCN3CCN(CC(=O)c4ccccc4)CC3)cc2)n1`, the Cmax in [6] amounted to 11000 ng/mL; in data set [7], 450 ng/mL; in data set [8], 1700 ng/mL. This compound gave a half-life in [9] of 3.6 h. Also, the IC50 was over 10000 nM on D(2) dopamine receptor [10], 887 nM against Nitric oxide synthase 3, 140 nM against Nitric oxide synthase 1 [1] and 127 nM at Nitric oxide synthase 1 [2]. Further, the results for the Ki in data set [11] and in data set [12] were 320 nM and 590 nM, respectively.
In the case of `CC(C)CN1CCN(CCc2ccc(-c3cccc(N)n3)cc2)CC1`, the IC50 against Nitric oxide synthase 3 was 372 nM; on Nitric oxide synthase 1 [1], 350 nM; at Nitric oxide synthase 1 [2], 193 nM.
For `CC(C)NC(=O)CN1CCN(CCc2ccc(-c3cccc(N)n3)cc2)CC1`, in that order: 815 nM, 330 nM and 256 nM.
